Experimental data published in patent US10975093B2, “Fused 1,4-diazepines as BET protein degraders” (THE REGENTS OF THE UNIVERSITY OF MICHIGAN, priority 2016, dated 2021).

Columns and labels:
MOLM-13 = assay: Cell growth inhibition, CellTiter-Glo Luminescent Cell Viability Assay, MOLM-13; type: cell-based; conditions: Homo sapiens, MOLM-13, 96 h, MOLM-13 cells, 4 days incubation
Experimental: (§1) Cell growth inhibitory activity of representative Compounds of the Disclosure was determined in various cell lines using CellTiter-Glo® Luminescent Cell Viability Assay. Cells were seeded in 384-well white opaque cell culture plates at a density of 2,000 cells/well with serially diluted compounds and incubated at 37° C. in an atmosphere of 95% air and 5% CO2 for 4 days. Cell viability was determined using the CellTiter-Glo® Luminescent Cell Viability Assay Kit (Promega, Madison, Wis.) according to the manufacture's instruction. Briefly, a volume of CellTiter-Glo® Reagent equal to the volume of cell culture medium was added to each well, and then the plates were incubated at room temperature for 10-20 minutes. The luminescent signal was measured using a Tecan Infinite M1000 multimode microplate reader (Tecan, Morrisville, N.C.). The half maximal inhibitory concentration (IC50) was calculated using the GraphPad Prism 5 software (GraphPad Software, La Jolla, Calif.).

MDA-MB-231 = assay: Cell growth inhibition, CellTiter-Glo Luminescent Cell Viability Assay, MDA-MB-231; type: cell-based; conditions: Homo sapiens, MDA-MB-231, 96 h, MDA-MB-231 cells, 4 days incubation
Experimental: as §1

IC50 (MOLM-13) [nM]	IC50 (MDA-MB-231) [nM]	Compound
42.6	58.8	Cc1c(C#Cc2cnn(CCCC#Cc3cccc4c3C(=O)N(C3CCCNC3=O)C4=O)c2)sc2c1C(c1ccc(Cl)cc1)=N[C@@H](C)c1nnc(C)n1-2 (stereo partly drawn) [compound 160, 4-(5-(4-(((S)-4-(4-chlorophenyl)-3,6,9-trimethyl-6H-thieno[3,2-f][1,2,4]triazolo[4,3-a][1,4]diazepin-2-yl)ethynyl)-1H-pyrazol-1-yl)pent-1-yn-1-yl)-2-(2-oxopiperidin-3-yl)isoindoline-1,3-dione]
3.3	4.6	Cc1c(C#Cc2cnn(C[C@H]3C[C@H](Nc4cccc5c4CN(C4CCC(=O)NC4=O)C5=O)C3)c2)sc2c1C(c1ccc(Cl)cc1)=N[C@@H](C)c1nnc(C)n1-2 (stereo partly drawn) [compound 173, 3-(4-(((1S,3r)-3-((4-(((S)-4-(4-chlorophenyl)-3,6,9-trimethyl-6H-thieno[3,2-f][1,2,4]triazolo[4,3-a][1,4]diazepin-2-yl)ethynyl)-1H-pyrazol-1-yl)methyl)cyclobutyl)amino)-1-oxoisoindolin-2-yl)piperidine-2,6-dione]
0.42	0.67	Cc1c(C#Cc2cnn(CCCCN3CCC(Nc4cccc5c4CN(C4CCC(=O)NC4=O)C5=O)CC3)c2)sc2c1C(c1ccc(Cl)cc1)=NCc1nnc(C)n1-2 (stereo not shown) [compound 149, 3-(4-((1-(4-(4-((4-(4-chlorophenyl)-3,9-dimethyl-6H-thieno[3,2-f][1,2,4]triazolo[4,3-a][1,4]diazepin-2-yl)ethynyl)-1H-pyrazol-1-yl)butyl)piperidin-4-yl)amino)-1-oxoisoindolin-2-yl)piperidine-2,6-dione]
2.5	7.2	Cc1c(C#Cc2cnn(CCCC#Cc3ccc4c(c3)C(=O)N(C3CCC(=O)NC3=O)C4=O)c2)sc2c1C(c1ccc(Cl)cc1)=N[C@@H](C)c1nnc(C)n1-2 (stereo partly drawn) [compound 158, 5-(5-(4-(((S)-4-(4-chlorophenyl)-3,6,9-trimethyl-6H-thieno[3,2-f][1,2,4]triazolo[4,3-a][1,4]diazepin-2-yl)ethynyl)-1H-pyrazolo-1-yl)pent-1-yn-1-yl)-2-(2,6-dioxopiperidin-3-yl)isoindoline-1,3-dione]
0.8	0.7	Cc1c(C#Cc2cnn(CCOCCOCCOCC#Cc3cccc4c3CN(C3CCC(=O)NC3=O)C4=O)c2)sc2c1C(c1ccc(Cl)cc1)=N[C@@H](CC(=O)OC(C)(C)C)c1nnc(C)n1-2 (stereo partly drawn) [compound 194, tert-butyl 2-((6S)-4-(4-chlorophenyl)-2-((1-(2-(2-(2-((3-(2-(2,6-dioxopiperidin-3-yl)-1-oxoisoindolin-4-yl)prop-2-yn-1-yl)oxy)ethoxy)ethoxy)ethyl)-1H-pyrazol-4-yl)ethynyl)-3,9-dimethyl-6H-thieno[3,2-f][1,2,4]triazolo[4,3-a][1,4]diazepin-6-yl)acetate]
0.04	0.2	CCNC(=O)C[C@@H]1N=C(c2ccc(Cl)cc2)c2c(sc(C#Cc3cnn(CCCN4CCC(Nc5cccc6c5CN(C5CCC(=O)NC5=O)C6=O)CC4)c3)c2C)-n2c(C)nnc21 (stereo partly drawn) [compound 191, 2-((6S)-4-(4-chlorophenyl)-2-((1-(3-(4-((2-(2,6-dioxopiperidin-3-yl)-1-oxoisoindolin-4-yl)amino)piperidin-1-yl)propyl)-1H-pyrazol-4-yl)ethynyl)-3,9-dimthyl-6H-thieno[3,2-f][1,2,4]triazolo[4,3-a][1,4]diazepin-6-yl)-N-ethylacetamide]
0.8	0.3	Cc1c(C#Cc2cnn(CCN3CCN(c4cccc5c4C(=O)N(C4CCC(=O)NC4=O)C5=O)CC3)c2)sc2c1C(c1ccc(Cl)cc1)=N[C@@H](C)c1nnc(C)n1-2 (stereo partly drawn) [compound 183, 4-(4-(2-(4-(((S)-4-(4-chlorophenyl)-3,6,9-trimethyl-6H-thieno[3,2-f][1,2,4]triazolo[4,3-a][1,4]diazepin-2-yl)ethynyl)-1H-pyrazol-1-yl)ethyl)piperazin-1-yl)-2-(2,6-dioxopiperidin-3-yl)isoindoline-1,3-dione]
2.4	5.4	Cc1c(C#Cc2cnn(CCOCCOCCOCC#Cc3cccc4c3CN(C3CCC(=O)NC3=O)C4=O)c2)sc2c1C(c1ccc(Cl)cc1)=N[C@@H](CC(N)=O)c1nnc(C)n1-2 (stereo partly drawn) [compound 195, 2-((6S)-4-(4-chlorophenyl)-2-((1-(2-(2-(2-((3-(2-(2,6-dioxopiperidin-3-yl)-1-oxoisoindolin-4-yl)prop-2-yn-1-yl)oxy)ethoxy)ethoxy)ethyl)-1H-pyrazol-4-yl)ethynyl)-3,9-dimethyl-6H-thieno[3,2-f][1,2,4]triazolo[4,3-a][1,4]diazepin-6-yl)acetamide]
> 100	> 100	Cc1c(C#Cc2cnn(CCn3cnc(CNc4cccc5c4CN(C4CCC(=O)NC4=O)C5=O)c3)c2)sc2c1C(c1ccc(Cl)cc1)=NCc1nnc(C)n1-2 (stereo not shown) [compound 150, 3-(4-(((1-(2-(4-((4-(4-chlorophenyl)-3,9-dimethyl-6H-thieno[3,2-f][1,2,4]triazolo[4,3-a][1,4]diazepin-2-yl)ethynyl)-1H-pyrazol-1-yl)ethyl)-1H-imidazol-4-yl)methyl)amino)-1-oxoisoindolin-2-yl)piperidine-2,6-dione]
0.5 ± 0.06	6.7	Cc1ncsc1-c1ccc([C@H](C)NC(=O)[C@@H]2C[C@@H](O)CN2C(=O)[C@@H](NC(=O)COCCCn2cc(C#Cc3sc4c(c3C)C(c3ccc(Cl)cc3)=N[C@@H](C)c3nnc(C)n3-4)cn2)C(C)(C)C)cc1 [compound 199, (2S,4R)-1-((S)-2-(2-(3-(4-(((S)-4-(4-chlorophenyl)-3,6,9-trimethyl-6H-thieno[3,2-f][1,2,4]triazolo[4,3-a][1,4]diazepin-2-yl)ethynyl)-1H-pyrazol-1-yl)propoxy)acetamido)-3,3-dimethylbutanoyl)-4-hydroxy-N-((S)-1-(4-(4-methylthiazol-5-yl)phenyl)ethyl)pyrrolidine-2-carboxamide]
0.2	0.4	Cc1c(C#Cc2cnn(CCOCCOCCOCC#Cc3cccc4c3CN(C3CCC(=O)NC3=O)C4=O)c2)sc2c1C(c1ccc(Cl)cc1)=N[C@@H](C)c1nnc(C)n1-2 (stereo partly shown) [compound 196]
0.24	0.4	Cc1c(C#Cc2cnn(CCCN3CCC(Nc4cccc5c4CN(C4CCC(=O)NC4=O)C5=O)CC3)c2)sc2c1C(c1ccc(Cl)cc1)=NCc1nnc(C)n1-2 (stereo not shown) [compound 148, 3-(4-((1-(3-(4-((4-(4-chlorophenyl)-3,9-dimethyl-6H-thieno[3,2-f][1,2,4]triazolo[4,3-a][1,4]diazepin-2-yl)ethynyl)-1H-pyrazol-1-yl)propyl)piperidin-4-yl)amino)-1-oxoisoindolin-2-yl)piperidine-2,6-dione]
0.23	0.43	Cc1c(C#Cc2ccc(CCCCNc3cccc4c3CN(C3CCC(=O)NC3=O)C4=O)nc2)sc2c1C(c1ccc(Cl)cc1)=N[C@@H](C)c1nnc(C)n1-2 (stereo partly drawn) [Cpd. No. 18, 3-(4-((4-(5-(((S)-4-(4-chlorophenyl)-3,6,9-trimethyl-6H-thieno[3,2-f][1,2,4]triazolo[4,3-a][1,4]diazepin-2-yl)ethynyl)pyridin-2-yl)butyl)amino)-1-oxoisoindolin-2-yl)piperidine-2,6-dione]
> 100	> 100	Cc1c(C#Cc2cnn(CCCn3cnc(CNc4cccc5c4CN(C4CCC(=O)NC4=O)C5=O)c3)c2)sc2c1C(c1ccc(Cl)cc1)=NCc1nnc(C)n1-2 (stereo not shown) [compound 151, 3-(4-(((1-(3-(4-((4-(4-chlorophneyl)-3,9-dimethyl-6H-thieno[3,2-f][1,2,4]triazolo[4,3-a][1,4]diazepin-2-yl)ethynyl)-1H-pyrazol-1-yl)propyl)-1H-imidazol-4-yl)methyl)amino)-1-oxoisoindolin-2-yl)piperidine-2,6-dione]
1.1	1.7	Cc1c(C#Cc2ccc(OCCC#Cc3cccc4c3CN(C3CCC(=O)NC3=O)C4=O)cn2)sc2c1C(c1ccc(Cl)cc1)=N[C@@H](C)c1nnc(C)n1-2 (stereo partly drawn) [Cpd. No. 16, 3-(4-(4-((6-(((S)-4-(4-chlorophenyl)-3,6,9-trimethyl-6H-thieno[3,2-f][1,2,4]triazolo[4,3-a][1,4]diazepin-2-yl)ethynyl)pyridin-3-yl)oxy)but-1-yn-1-yl)-1-oxoisoindolin-2-yl)piperidine-2,6-dione]
0.9	0.2	Cc1c(C#Cc2cnn(CCCC#Cc3ccc4c(c3)CN(C3CCC(=O)NC3=O)C4=O)c2)sc2c1C(c1ccc(Cl)cc1)=N[C@@H](C)c1nnc(C)n1-2 (stereo partly drawn) [compound 179, 3-(5-(5-(4-(((S)-4-(4-chlorophenyl)-3,6,9-trimethyl-6H-thieno[3,2-f][1,2,4]triazolo[4,3-a][1,4]diazepin-2-yl)ethynyl)-1H-pyrazol-1-yl)pent-1-yn-1-yl)-1-oxoisoindolin-2-yl)piperidine-2,6-dione]
12.8	17.6	Cc1c(C#Cc2cnn(CCCn3cnc(COc4cccc5c4CN(C4CCC(=O)NC4=O)C5=O)c3)c2)sc2c1C(c1ccc(Cl)cc1)=NCc1nnc(C)n1-2 (stereo not shown) [compound 156, 3-(4-((1-(3-(4-((4-(4-chlorophenyl)-3,9-dimethyl-6H-thieno[3,2-f][1,2,4]triazolo[4,3-a][1,4]diazepin-2-yl)ethynyl)-1H-pyrazol-1-yl)propyl)-1H-imidazol-4-yl)methoxy)-1-oxoisoindolin-2-yl)piperidine-2,6-dione]
